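The compound was tested at five concentrations on cells cultured in 96-well plates, with a 48-hour exposure period. At the GI50, growth is halved. Definition used: TGI = concentration required for complete inhibition of growth.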

Some test systems named below: SK-OV-3 ovarian; NCI-H460 lung; A498 renal; COLO 205 colon; SNB-19 CNS; HT29 colon; CCRF-CEM leukemia; HOP-92 NSCLC; TK-10 renal; SR leukemia.
Holding throughout (assay): growth of human tumour cells (NCI), 48 h

Take `O=c1c2ccccc2nc(-c2cccc([N+](=O)[O-])c2)n1O`: the TGI with SK-OV-3 ovarian was over 100 µM; in the experiment with NCI-H460 lung it was over 100 µM; in the experiment with A498 renal it was over 85.1 µM; in the experiment on COLO 205 colon it was over 100 µM; with SNB-19 CNS, over 100 µM; in the experiment on HT29 colon, over 100 µM. Besides, the TGI with CCRF-CEM leukemia was over 38.2 µM; in the experiment with HOP-92 NSCLC, over 75.1 µM; in the experiment with TK-10 renal, over 100 µM; in the experiment with SR leukemia, over 100 µM.
`C=CC1(C)CCC2C(=CCC3C2(C)CC(O)C(O)C3(C)COC2OC(CO)C(O)C(O)C2O)C1` (configuration not stated): the TGI in the experiment with SK-OV-3 ovarian, with NCI-H460 lung, in the experiment with A498 renal, in the experiment on COLO 205 colon, in the experiment with SNB-19 CNS and with HT29 colon was over 100 µM throughout. The TGI in the experiment with CCRF-CEM leukemia, in the experiment on HOP-92 NSCLC, in the experiment with TK-10 renal and in the experiment on SR leukemia was over 100 µM in each case.
On to `COc1cc(/C=C/C(=O)c2cccc(-n3cc(-c4ccccc4)[nH]c3=O)c2)cc(OC)c1OC`, for which the GI50 in the experiment on SK-OV-3 ovarian is 3.27 µM; in the experiment on NCI-H460 lung, 1.4 µM; in the experiment on A498 renal, 2.65 µM; in the experiment with COLO 205 colon, 1.51 µM; in the experiment on SNB-19 CNS, 2.35 µM; in the experiment with HT29 colon, 0.662 µM. Further, the GI50 in the experiment on CCRF-CEM leukemia is 0.64 µM; in the experiment on HOP-92 NSCLC it was 10.8 µM; with TK-10 renal, 3.02 µM; in the experiment with SR leukemia, 0.565 µM. The TGI in the experiment with SK-OV-3 ovarian came out at 11.3 µM; in the experiment on NCI-H460 lung it was 2.69 µM; with A498 renal, 6.63 µM; in the experiment with COLO 205 colon, 2.83 µM; with SNB-19 CNS it was 5.69 µM; with HT29 colon, 1.85 µM. Also, the TGI in the experiment on CCRF-CEM leukemia is over 100 µM; with HOP-92 NSCLC, 35.6 µM; in the experiment on TK-10 renal it was 9.35 µM; in the experiment with SR leukemia, over 100 µM.
On to `O=C(/C=C/c1ccccc1)NC1C=Nc2ccc([N+](=O)[O-])cc2NC1=O` (configuration not stated), for which the TGI in the experiment with SK-OV-3 ovarian, in the experiment with NCI-H460 lung, in the experiment with A498 renal, in the experiment with COLO 205 colon, with SNB-19 CNS and in the experiment on HT29 colon was over 100 µM each time. For the same compound, the TGI with CCRF-CEM leukemia, with HOP-92 NSCLC, in the experiment with TK-10 renal and with SR leukemia was over 100 µM in each case.
On to `N#CCCNc1nonc1-c1nc2ccccc2n1CC(=O)c1ccc(N)cc1`, for which the GI50 was 0.0189 µM in the experiment with SK-OV-3 ovarian; 0.0317 µM with NCI-H460 lung; under 0.01 µM in the experiment with A498 renal; 0.022 µM with COLO 205 colon; 0.0226 µM in the experiment with HT29 colon; 0.029 µM in the experiment on CCRF-CEM leukemia. The GI50 is under 0.01 µM in the experiment with HOP-92 NSCLC and under 0.0135 µM in the experiment on SR leukemia. The TGI was 0.0665 µM in the experiment on SK-OV-3 ovarian; over 32.9 µM in the experiment on NCI-H460 lung; 0.0873 µM in the experiment on A498 renal; 0.0477 µM in the experiment on COLO 205 colon; over 100 µM in the experiment with SNB-19 CNS; 0.0701 µM in the experiment on HT29 colon. The TGI was over 100 µM with CCRF-CEM leukemia, 0.456 µM in the experiment with HOP-92 NSCLC, over 90.9 µM in the experiment with TK-10 renal and over 100 µM in the experiment on SR leukemia.
For the compound `O=C(O)/C=C\C(=O)Nc1ccc2c(c1)-c1ccccc1C2`, the TGI with SK-OV-3 ovarian, in the experiment on NCI-H460 lung, in the experiment on A498 renal, with COLO 205 colon, in the experiment with SNB-19 CNS and in the experiment on HT29 colon was over 100 µM each time. For the same compound, the TGI in the experiment with CCRF-CEM leukemia, in the experiment on HOP-92 NSCLC, with TK-10 renal and in the experiment with SR leukemia was over 100 µM throughout.
In the case of `COC(=O)[C@@H](C)C[C@H](Cc1ccccc1)NC(=O)c1nc([C@@H](C[C@H](C(C)C)N(C)C(=O)[C@@H](NC(=O)[C@H]2C[C@H](O)CCN2C)C(C)C)OC(C)=O)sc1C(C)C`, the GI50 in the experiment with SK-OV-3 ovarian was 0.00646 µM; in the experiment on NCI-H460 lung, 0.0076 µM; with A498 renal, 0.00752 µM; in the experiment on COLO 205 colon, 0.00692 µM; with SNB-19 CNS, 0.00424 µM; with HT29 colon it was 0.00377 µM. Further, the GI50 with CCRF-CEM leukemia was 0.00525 µM; with HOP-92 NSCLC it was 0.00491 µM; in the experiment with TK-10 renal, 0.319 µM; with SR leukemia, 0.00126 µM. Moreover, the TGI in the experiment on SK-OV-3 ovarian was over 11.1 µM; in the experiment with NCI-H460 lung it was over 11.1 µM; with A498 renal, 0.0881 µM; with COLO 205 colon, 0.104 µM; in the experiment with SNB-19 CNS, over 11.1 µM; in the experiment on HT29 colon it was over 3.99 µM. Besides, the TGI was over 11.1 µM in the experiment on CCRF-CEM leukemia, 7.05 µM in the experiment with HOP-92 NSCLC, over 11.1 µM in the experiment on TK-10 renal and over 11.1 µM with SR leukemia.
Consider `COC(=O)N[C@H]1CCc2cc(OC)c(OC)c(OC)c2-c2ccc(SC)c(=O)cc21`, for which the GI50 in the experiment with SK-OV-3 ovarian, in the experiment on NCI-H460 lung, with A498 renal, with COLO 205 colon, with SNB-19 CNS and with HT29 colon was under 0.01 µM throughout. In addition, the GI50 with CCRF-CEM leukemia was under 0.01 µM; with HOP-92 NSCLC it was 0.0631 µM; with TK-10 renal, 13.1 µM; in the experiment on SR leukemia, under 0.01 µM. The TGI in the experiment with SK-OV-3 ovarian was over 100 µM; in the experiment with NCI-H460 lung, over 100 µM; in the experiment on A498 renal it was under 0.0255 µM; in the experiment on SNB-19 CNS, over 100 µM; in the experiment on HT29 colon it was over 100 µM; in the experiment on CCRF-CEM leukemia, over 100 µM. Also, the figures for the TGI with HOP-92 NSCLC, in the experiment with TK-10 renal and in the experiment on SR leukemia were over 64.8 µM, over 100 µM and over 100 µM, respectively.
For `O=P1(NCCCl)OCCCN1CCCl` (configuration not stated), the TGI in the experiment on SK-OV-3 ovarian stood at 424 µM; in the experiment with NCI-H460 lung, 448 µM; with A498 renal, 462 µM; in the experiment with COLO 205 colon it was 428 µM; in the experiment with SNB-19 CNS it was 418 µM; with HT29 colon it was 448 µM. Besides, the TGI in the experiment with CCRF-CEM leukemia is 400 µM; in the experiment with HOP-92 NSCLC, 367 µM; in the experiment on TK-10 renal it was over 500 µM; with SR leukemia, over 500 µM.
As for `CC(=O)OCC1C(=O)OCC1C(=O)N1Cc2cc3ccccc3nc2C1` (configuration not stated), the TGI is 31.1 µM in the experiment on SK-OV-3 ovarian; 28.8 µM in the experiment with NCI-H460 lung; 16.4 µM in the experiment on A498 renal; 2.04 µM in the experiment with COLO 205 colon; 32.8 µM in the experiment on SNB-19 CNS; 10.3 µM in the experiment with HT29 colon. Moreover, the TGI in the experiment with CCRF-CEM leukemia was 3.79 µM; with HOP-92 NSCLC it was 3.77 µM; with TK-10 renal, 4.17 µM; in the experiment on SR leukemia, 10.7 µM.

The values above are taken from PubChem BioAssay (NCI).
